Compared with `COc1ccc(Nc2cc(-c3ccc(F)cc3)nc3ccccc23)cc1Cl`, `COc1ccc(C(=O)Nc2ccccc2)cc1NS(=O)(=O)c1cccc2ccccc12` is lower in melting point: 260 °C for the first, 212 to 213 °C for the second.

First: Cc1c2c(c(C(C)c3ccc(C(C)C)cc3)c(C)c1NC(=O)CC(C)(C)C)OCC2 (stereo not drawn)
Second: COc1ccc(C(=O)Nc2c(C)c(C)c3c(c2C)C(c2ccc(F)cc2)C(C)(C)O3)cc1 (stereo not drawn)
The melting point of the first is lower: 189 to 190 °C for the first, 191 to 194 °C for the second.

Compared with `CCCCOc1ccc2c(O)c(C(=O)NCCO)nc(Cl)c2c1`, `CCCCCc1c(C=CC(=O)OC)nc(C(C)C)c(CO)c1-c1ccc(F)cc1` is lower in melting point: 118 to 120 °C for the first, 82 to 83 °C for the second.

First: COc1ccc(S(=O)(=O)N2CC(C)(C)CN(S(=O)(=O)c3ccc(OC)cc3)C2C(=O)NO)cc1
Second: Cc1ccc(S(=O)(=O)N2CCC[C@H]2C(=O)N[C@@H](Cc2ccc(OCCCN3CCN(C)CC3)cc2)C(=O)O)cc1
The melting point of the first is higher: 125 to 126 °C for the first, 80 to 83 °C for the second.

Compared with `CCOc1cc(Cc2cnc(N)nc2N)cc2c1OC(C)(C)C=C2c1ccc(OC)c(OC)c1`, `CCOc1cc(-c2cc(C(F)(F)F)n3ncc(-c4ccnc(C)c4)c3n2)ccc1C(F)(F)F` is higher in melting point: 191 to 192 °C for the first, 226 °C for the second.

First: COc1cc(OC)nc(NC(=O)NS(=O)(=O)c2ccccc2-c2nnn(C)n2)n1
Second: COc1nc(CNC(=O)NS(=O)(=O)c2ccccc2S(=O)(=O)N(C)C)nc(OC)n1
The melting point of the first is higher: 214 to 222 °C for the first, 183 to 189 °C for the second.

First: CC(=C1C(=O)N(c2cccc(C)c2)c2ccccc21)N(C)C
Second: CN(C)C1(c2ccccc2Cl)C(=O)Nc2ccc(Cl)cc21 (stereo not drawn)
The melting point of the first is lower: 96 to 99 °C for the first, 169 to 172 °C for the second.

Compared with `Cc1ccc(N2C(=O)C3=C(CCCC3)C2=O)c2c1OC(CO)C2` (stereo not drawn), `O=C1O[C@@H](CNC(=O)C(F)(F)F)CN1c1ccc2c(c1)CCCc1cnoc1-2` is higher in melting point: 177 to 179 °C for the first, 203 to 205 °C for the second.

First: CCCCCCOc1ccc(Nc2ncc(F)c(Nc3ccc4c(c3)OCCO4)n2)cc1
Second: CCCC[C@@H]1CCc2ccc(OCc3ccc4ccccc4n3)cc2[C@H]1O
The melting point of the first is higher: 115 to 117 °C for the first, 58 to 59 °C for the second.

First: O=C1CN(c2ccccc2)C(=S)N1C1CCCCC1
Second: O=C(O)c1cn2c3c(c(N4CCCC4)c(F)cc3c1=O)CCN2Cc1ccccc1
The melting point of the first is lower: 156 °C for the first, 174 to 180 °C for the second.

Compared with `Cn1cc(C2=C(c3cn(CCC(N)=O)c4ccccc34)C(=O)NC2=O)c2ccccc21`, `CCOC(=O)c1cn(-c2ccccc2)nc1OCc1ccccc1` is lower in melting point: 243 to 247 °C for the first, 113 to 114 °C for the second.

First: CC(C)CC(CC(=O)NO)C(=O)N[C@H]1Cc2cn(c3ccccc23)CCCCCCCNC1=O (stereo partly drawn)
Second: CC(CCC(=O)NO)NC(=O)C(=O)c1cn2c3c(cccc13)CCC2 (stereo not drawn)
The melting point of the first is higher: 197 to 201 °C for the first, 135 to 137 °C for the second.

First: CCOC(=O)c1ccc(C2=CCCc3ccccc32)cc1
Second: CCOC(=O)Cc1c(-c2ccccc2)n[nH]c1-c1ccccc1
The melting point of the first is lower: 81 °C for the first, 117 to 118 °C for the second.

First: CC(O)(C=Cc1ccc(S(=O)(=O)c2ccncc2)cc1)C(F)(F)F (stereo not drawn)
Second: COC(=O)CCc1cc2cc(Cl)ccc2n1S(=O)(=O)c1ccc(C(F)(F)F)cc1
The melting point of the first is higher: 168 to 171 °C for the first, 82 to 86 °C for the second.

First: O=C(Nc1cccc(S(=O)(=O)C(F)(F)F)c1)c1ccc2ccccc2c1O
Second: COc1ccc(NC(=O)c2ccc(F)c(F)c2)cc1NS(=O)(=O)c1cccc(C#N)c1
The melting point of the first is lower: 194 to 195 °C for the first, 212 to 214 °C for the second.

First: CO[C@@H]1[C@@H](OC)[C@H](C)O[C@@H](OC(=O)Nc2ccc(-c3ccnc(-c4ccc(C(F)(F)F)cc4)n3)cc2)[C@@H]1OC
Second: COc1ccc(-c2nc(-c3cccn3CC(=O)OCC(C)C)sc2-c2ccc(OC)cc2)cc1
The melting point of the first is higher: 176 to 179 °C for the first, 106 to 108 °C for the second.

First: COCN1c2cc(C(=O)OC)ccc2Sc2nccnc21
Second: CON=C(C(=O)OC)c1ccccc1CSc1nc2ccccc2s1
The melting point of the first is higher: 151 to 152 °C for the first, 113 to 114 °C for the second.

First: CN(CCc1ccccc1)c1nc(=O)c2cccnc2s1
Second: CN(CC(=O)OC(C)(C)C)c1nccc(-c2nc(=O)c3ccccc3s2)n1
The melting point of the first is lower: 115 to 116 °C for the first, 186 to 188 °C for the second.

Compared with `CCC(=O)Nc1ccc(-c2c[nH]c(=O)cn2)cc1`, `CCCn1c(=O)c2nc(-c3ccc(/C=C/C(=O)O)cc3)[nH]c2n(Cc2ccccc2)c1=O` is higher in melting point: 270 to 272 °C for the first, greater than 300 °C for the second.

First: NC(=O)c1ccc(OCCn2ccnc2)cc1
Second: CC(C)c1ccc2cc(OCCF)ccc2c1
The melting point of the first is higher: 148 to 149 °C for the first, 46 to 48 °C for the second.

First: CCOC(=O)c1ccc(C2=NOC(c3cc(Cl)cc(Cl)c3)(C(F)(F)F)C2)cc1[N+](=O)[O-] (stereo not drawn)
Second: CCOC(=O)c1cnn(-c2ccc(Cl)cc2Cl)c1C(F)(F)F
The melting point of the first is higher: 160 to 162 °C for the first, 81 to 83 °C for the second.

First: CC(C)(C)OC(=O)NCCNc1n[nH]c2ncnc(Nc3cccc(Cl)c3)c12
Second: O=C(Nc1cccc(Cl)c1)Nc1ccc(Br)cc1-c1nnn[nH]1
The melting point of the first is lower: 206 to 208 °C for the first, 258 to 263 °C for the second.

First: c1ccc(CN2C[C@@H]3Cc4cc5ccccc5n4C[C@@H]3C2)cc1 (relative stereo)
Second: N=c1sc2cc(OC(F)(F)F)ccc2n1CCS(=O)C1CCN(Cc2ccccc2)CC1 (stereo not drawn)
The melting point of the first is lower: 91 to 93 °C for the first, 97 °C for the second.

Compared with `CCOC(=O)c1cn(-c2cnnn2C)c2nc(Cl)c(F)cc2c1=O`, `CCOC(=O)N(N)C(=O)c1cc(Cl)ccc1O` is lower in melting point: 251 °C for the first, 172 °C for the second.

Compared with `COc1ccc(OC)c(Sc2ncccc2C(=O)NCC23CC4CC(CC(C4)C2)C3)c1`, `COc1ccc2c(c1)Cc1cc(C(C)C(=O)O)ccc1-2` (stereo not drawn) is higher in melting point: 135 to 136 °C for the first, 179 to 181 °C for the second.

First: O=C(NCCNCC(O)COc1ccc(O)cc1F)C1CCOCC1 (stereo not drawn)
Second: CNC(=O)NCCNCC(O)COc1ccc(OCCOCC(C)C)cc1 (stereo not drawn)
The melting point of the first is lower: 101 to 104 °C for the first, 121 °C for the second.

Compared with `COc1cc(Cl)c2c(=O)c(C(C)C)coc2c1`, `COc1cc(Br)c(C2=NC(C)(C)CO2)cc1OC` is lower in melting point: 177 to 179 °C for the first, 49 to 51 °C for the second.

Going from `CNc1c(S(=O)(=O)C(F)(F)F)c(C#N)nn1-c1c(Cl)cc(C(F)(F)F)cc1Cl` to `O=C(NC(=O)c1ccc(F)cc1Cl)Nc1ccc(C(F)(F)F)cc1F`, the melting point falls from 227 °C to 194 °C.

First: ONCC1(c2ccc(OCc3ccc4ccccc4n3)cc2)CCCC1
Second: COC(=O)c1ccc(C[C@@H]2COc3ccc(OCc4ccc5ccccc5n4)cc3[C@H]2O)cc1 (relative stereo)
The melting point of the first is lower: 116 to 117 °C for the first, 138 to 140 °C for the second.

First: CCCCNC(=O)Nc1cc(Cl)ccc1C(=O)NCC1CCN(C(c2ccccc2)c2ccccc2)CC1
Second: O=C(COCc1ccccc1)NC(C(=O)O)c1ccccc1 (stereo not drawn)
The melting point of the first is higher: 195 to 197 °C for the first, 127 to 130 °C for the second.

First: Cc1cccc([N+](=O)[O-])c1-c1c(C)cccc1[N+](=O)[O-]
Second: O=[N+]([O-])c1cccc(-c2ccnc3ccnn23)c1
The melting point of the first is lower: 107 to 108 °C for the first, 204 to 206 °C for the second.

Compared with `O=C1CCc2c(-c3ccncc3)sc(-c3ccccc3F)c21`, `Cc1nc(-n2ccc(N3CCNC3=O)cc2=O)sc1C(=O)NCc1ccccc1` is higher in melting point: 133 to 135 °C for the first, greater than 300 °C for the second.

First: Cc1noc(NS(=O)(=O)c2cc(OCc3ccccc3)ccc2-c2ccc(CC(C)C)cc2)c1C
Second: Cc1oc(-c2ccccc2)nc1CCOc1ccc(CC(C(=O)O)C(=O)O)cc1
The melting point of the first is lower: 96 to 101 °C for the first, 173 to 175 °C for the second.

First: Cc1cc(-c2nnc3c4ccccc4c(OCc4cnc5ccccc5n4)nn23)no1
Second: C#CCn1cnc2c(N)nc3ccccc3c21
The melting point of the first is higher: 243 to 245 °C for the first, 220 to 222 °C for the second.

Compared with `CC1(C)Oc2ccc(C#N)cc2C(c2ccc[nH]c2=O)C1O` (stereo not drawn), `CCCCCCCCc1ccc(C(=O)Cc2cccc(C#N)c2)cc1` is lower in melting point: 246 to 247 °C for the first, 59 to 64 °C for the second.

First: CC1CC2C(=CCC3(C)C(C(=O)CCl)=CCC23)C2(C)C=CC(=O)C=C12 (stereo not drawn)
Second: CCOC(=O)C(=O)c1ccccc1Nc1c(Cl)cccc1Cl
The melting point of the first is higher: 164 °C for the first, 84 to 85.5 °C for the second.

First: O=C(NCC1CC1)NCC1CC1
Second: CS(=O)(=O)Nc1ccc(C(O)C2CCN(CCc3ccccc3)CC2)cc1 (stereo not drawn)
The melting point of the first is lower: 127 to 130 °C for the first, 164 to 166 °C for the second.

First: c1ccc(Nc2ccnc3[nH]cnc23)cc1
Second: CC(=O)C(=NNc1cccc2ccccc12)Sc1ccc(C(C)C)cc1
The melting point of the first is higher: 251 to 252 °C for the first, 130 to 133 °C for the second.

First: O=[N+]([O-])C=C(NCc1cccnc1)N1CCCCC1
Second: c1ccc2c(c1)CC1(C3=NCCN3)CC21 (single isomer, unassigned; (+))
The melting point of the first is lower: 106 to 108 °C for the first, 245 to 247 °C for the second.

First: CCCCCCCCCCC1(C)OCC(C=Cc2ccc(-c3ccccc3)cc2)OO1 (stereo not drawn)
Second: CCCCCCCCCCC(O)C1CCC(C2CCC(C(O)CCCCCCCCCC(O)CC3=CC(C)OC3=O)O2)O1 (stereo not drawn)
The melting point of the first is higher: 86 to 90 °C for the first, 69 to 70 °C for the second.

First: COc1nc2cc(SCCCc3cc4c(cc3O)CC(CCc3ccccc3)O4)ccc2cc1C(=O)O (stereo not drawn)
Second: NC(=O)CC(O)COC(c1ccccc1)(c1ccccc1)c1ccccc1 (stereo not drawn)
The melting point of the first is higher: 157 to 161 °C for the first, 59 to 60 °C for the second.

Going from `CC(=O)N1CCN(CCCOc2ccc(N3CCN(c4ccc5nnc(C(F)(F)F)n5n4)CC3)cc2)CC1` to `CCOC(=O)Cn1c2c([nH]c(=O)c1=O)CCC1=C2C=C(n2ccc(N3CCN(c4ccc([N+](=O)[O-])cc4)CC3)c2)CC1`, the melting point rises from 162 °C to 229 °C.

First: CN(C)CCOc1cc(O)cc(/C=C/c2ccc(O)cc2)c1
Second: CCCc1c(O)cc(O)c(C)c1C(=O)OC
The melting point of the first is higher: 92 to 94 °C for the first, 88 to 91 °C for the second.

First: COc1cc2c(cc1S(=O)(=O)Cl)CCC2
Second: Cc1cc(C)c2c(c1)SCCC2=NO
The melting point of the first is lower: 75 to 77 °C for the first, 170 to 174 °C for the second.

First: Cc1ccc(N=NN2C(C)(C)CC(O)CC2(C)C)cc1
Second: CN1Cc2cc(F)ccc2-n2c(c(C#CC(C)(O)C3CC3)[nH]c2=O)C1 (stereo not drawn)
The melting point of the first is lower: 85 to 86 °C for the first, 191 to 192 °C for the second.

First: CN(C)S(=O)(=O)Cc1ccccc1N
Second: CC(=O)CCc1nc2c(N)nc3ccccc3c2n1CC(C)(C)O
The melting point of the first is lower: 70 to 78 °C for the first, 181 to 184 °C for the second.

First: COC1=CC(=O)C(OC)=C(CCCCCC2=C(OC)C(=O)C(Cl)=C(OC)C2=O)C1=O
Second: COCOCc1c([N+](=O)[O-])cc(OC)c(OC)c1OC
The melting point of the first is higher: 44.8 to 46 °C for the first, 39 to 40 °C for the second.

Compared with `Nc1ncnc2[nH]c(=S)sc12`, `Clc1ccc(C(Br)C(Br)c2ncon2)cc1` (stereo not drawn) is lower in melting point: greater than 370 °C for the first, 141 to 142 °C for the second.

First: CCc1c2nc(-c3cc(C(C)=O)cnc3OCC(C)C)[nH]c(=O)c2nn1C1CCN(C)CC1
Second: CCCn1c(=O)c2[nH]c(/C=C/c3ccccc3Cl)nc2n(CCC)c1=O
The melting point of the first is lower: 195 to 196 °C for the first, 269 to 270 °C for the second.

From a melting point compilation (Tetko et al.; mined from patent text by program, amines drawn as free bases though some values may be those of a salt)
